{"source": "patent US20220281848A1", "about": "“PYRAZOLE-SUBSTITUTED PYRROLIDINONES AS HERBICIDES” (FMC Corporation, priority 2019, published 2022)", "test_system": "plants", "test": "Test D pre-emergence, other plants of Tables D1 and D3", "format": "in vivo", "conditions": "pre-emergence, 100=total damage, 0=no damage", "in_short": "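Seeds treated with herbicide safener; sown in soil; glasshouse, 16 h light, 65% humidity. Sprayed day 1 (pre) or ~day 12 (post). Spray in 0.2% v/v adjuvant. Scored 0–100 damage: 20 DAA pre, 15 d post.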", "data": [{"smiles": "CN1CC(c2cc(C(F)(F)F)n(C)n2)C(C(=O)Nc2cccc(F)c2F)C1=O", "note": "(racemic) [Compound 3]", "values": [{"measurement": "damage to plant, ALOMY", "setting": "rate 15, 20 DAA", "value": 0}, {"measurement": "damage to plant, AVEFA", "setting": "rate 15, 20 DAA", "value": 0}, {"measurement": "damage to plant, BEAVA", "setting": "rate 15, 20 DAA", "value": 0}, {"measurement": "damage to plant, BROTE", "setting": "rate 15, 20 DAA", "value": 0}, {"measurement": "damage to plant, BRSNN", "setting": "rate 15, 20 DAA", "value": 0}, {"measurement": "damage to plant, CHEAL", "setting": "rate 15, 20 DAA", "value": 0}, {"measurement": "damage to plant, GALAP", "setting": "rate 15, 20 DAA", "value": 0}, {"measurement": "damage to plant, HORVW", "setting": "rate 15, 20 DAA", "value": 0}, {"measurement": "damage to plant, KCHSC", "setting": "rate 15, 20 DAA", "value": 0}, {"measurement": "damage to plant, LOLPE", "setting": "rate 15, 20 DAA", "value": 0}, {"measurement": "damage to plant, POAAN", "setting": "rate 15, 20 DAA", "value": 0}, {"measurement": "damage to plant, POLCO", "setting": "rate 15, 20 DAA", "value": 0}, {"measurement": "damage to plant, SINAR", "setting": "rate 15, 20 DAA", "value": 0}, {"measurement": "damage to plant, STEME", "setting": "rate 15, 20 DAA", "value": 0}, {"measurement": "damage to plant, VERPE", "setting": "rate 15, 20 DAA", "value": 0}, {"measurement": "damage to plant, ALOMY", "setting": "rate 30, 20 DAA", "value": 0}, {"measurement": "damage to plant, AVEFA", "setting": "rate 30, 20 DAA", "value": 0}, {"measurement": "damage to plant, BEAVA", "setting": "rate 30, 20 DAA", "value": 0}, {"measurement": "damage to plant, BROTE", "setting": "rate 30, 20 DAA", "value": 0}, {"measurement": "damage to plant, BRSNN", "setting": "rate 30, 20 DAA", "value": 0}, {"measurement": "damage to plant, CHEAL", "setting": "rate 30, 20 DAA", "value": 0}, {"measurement": "damage to plant, GALAP", "setting": "rate 30, 20 DAA", "value": 0}, {"measurement": "damage to plant, HORVW", "setting": "rate 30, 20 DAA", "value": 0}, {"measurement": "damage to plant, KCHSC", "setting": "rate 30, 20 DAA", "value": 0}, {"measurement": "damage to plant, LOLPE", "setting": "rate 30, 20 DAA", "value": 0}, {"measurement": "damage to plant, POAAN", "setting": "rate 30, 20 DAA", "value": 20}, {"measurement": "damage to plant, POLCO", "setting": "rate 30, 20 DAA", "value": 0}, {"measurement": "damage to plant, SINAR", "setting": "rate 30, 20 DAA", "value": 0}, {"measurement": "damage to plant, STEME", "setting": "rate 30, 20 DAA", "value": 0}, {"measurement": "damage to plant, VERPE", "setting": "rate 30, 20 DAA", "value": 0}, {"measurement": "damage to plant, ALOMY", "setting": "rate 60, 20 DAA", "value": 0}, {"measurement": "damage to plant, AVEFA", "setting": "rate 60, 20 DAA", "value": 0}, {"measurement": "damage to plant, BEAVA", "setting": "rate 60, 20 DAA", "value": 0}, {"measurement": "damage to plant, BROTE", "setting": "rate 60, 20 DAA", "value": 0}, {"measurement": "damage to plant, BRSNN", "setting": "rate 60, 20 DAA", "value": 0}, {"measurement": "damage to plant, CHEAL", "setting": "rate 60, 20 DAA", "value": 0}, {"measurement": "damage to plant, GALAP", "setting": "rate 60, 20 DAA", "value": 0}, {"measurement": "damage to plant, HORVW", "setting": "rate 60, 20 DAA", "value": 0}, {"measurement": "damage to plant, KCHSC", "setting": "rate 60, 20 DAA", "value": 0}, {"measurement": "damage to plant, LOLPE", "setting": "rate 60, 20 DAA", "value": 0}, {"measurement": "damage to plant, POAAN", "setting": "rate 60, 20 DAA", "value": 20}, {"measurement": "damage to plant, POLCO", "setting": "rate 60, 20 DAA", "value": 0}, {"measurement": "damage to plant, SINAR", "setting": "rate 60, 20 DAA", "value": 0}, {"measurement": "damage to plant, STEME", "setting": "rate 60, 20 DAA", "value": 0}, {"measurement": "damage to plant, VERPE", "setting": "rate 60, 20 DAA", "value": 0}, {"measurement": "damage to plant, ALOMY", "setting": "rate 130, 20 DAA", "value": 0}, {"measurement": "damage to plant, AVEFA", "setting": "rate 130, 20 DAA", "value": 0}, {"measurement": "damage to plant, BEAVA", "setting": "rate 130, 20 DAA", "value": 0}, {"measurement": "damage to plant, BROTE", "setting": "rate 130, 20 DAA", "value": 0}, {"measurement": "damage to plant, BRSNN", "setting": "rate 130, 20 DAA", "value": 0}, {"measurement": "damage to plant, CHEAL", "setting": "rate 130, 20 DAA", "value": 0}, {"measurement": "damage to plant, GALAP", "setting": "rate 130, 20 DAA", "value": 0}, {"measurement": "damage to plant, HORVW", "setting": "rate 130, 20 DAA", "value": 0}, {"measurement": "damage to plant, KCHSC", "setting": "rate 130, 20 DAA", "value": 0}, {"measurement": "damage to plant, LOLPE", "setting": "rate 130, 20 DAA", "value": 0}, {"measurement": "damage to plant, POAAN", "setting": "rate 130, 20 DAA", "value": 40}, {"measurement": "damage to plant, POLCO", "setting": "rate 130, 20 DAA", "value": 0}, {"measurement": "damage to plant, SINAR", "setting": "rate 130, 20 DAA", "value": 0}, {"measurement": "damage to plant, STEME", "setting": "rate 130, 20 DAA", "value": 0}, {"measurement": "damage to plant, VERPE", "setting": "rate 130, 20 DAA", "value": 0}, {"measurement": "damage to plant, ALOMY", "setting": "rate 250, 20 DAA", "value": 0}, {"measurement": "damage to plant, AVEFA", "setting": "rate 250, 20 DAA", "value": 0}, {"measurement": "damage to plant, BEAVA", "setting": "rate 250, 20 DAA", "value": 0}, {"measurement": "damage to plant, BROTE", "setting": "rate 250, 20 DAA", "value": 0}, {"measurement": "damage to plant, BRSNN", "setting": "rate 250, 20 DAA", "value": 0}, {"measurement": "damage to plant, CHEAL", "setting": "rate 250, 20 DAA", "value": 0}, {"measurement": "damage to plant, GALAP", "setting": "rate 250, 20 DAA", "value": 0}, {"measurement": "damage to plant, HORVW", "setting": "rate 250, 20 DAA", "value": 0}, {"measurement": "damage to plant, KCHSC", "setting": "rate 250, 20 DAA", "value": 0}, {"measurement": "damage to plant, LOLPE", "setting": "rate 250, 20 DAA", "value": 0}, {"measurement": "damage to plant, POAAN", "setting": "rate 250, 20 DAA", "value": 50}, {"measurement": "damage to plant, POLCO", "setting": "rate 250, 20 DAA", "value": 0}, {"measurement": "damage to plant, SINAR", "setting": "rate 250, 20 DAA", "value": 0}, {"measurement": "damage to plant, STEME", "setting": "rate 250, 20 DAA", "value": 0}, {"measurement": "damage to plant, VERPE", "setting": "rate 250, 20 DAA", "value": 0}, {"measurement": "damage to plant, ALOMY", "setting": "rate 500, 20 DAA", "value": 20}, {"measurement": "damage to plant, AVEFA", "setting": "rate 500, 20 DAA", "value": 30}, {"measurement": "damage to plant, BEAVA", "setting": "rate 500, 20 DAA", "value": 0}, {"measurement": "damage to plant, BROTE", "setting": "rate 500, 20 DAA", "value": 0}, {"measurement": "damage to plant, BRSNN", "setting": "rate 500, 20 DAA", "value": 0}, {"measurement": "damage to plant, CHEAL", "setting": "rate 500, 20 DAA", "value": 0}, {"measurement": "damage to plant, GALAP", "setting": "rate 500, 20 DAA", "value": 0}, {"measurement": "damage to plant, HORVW", "setting": "rate 500, 20 DAA", "value": 20}, {"measurement": "damage to plant, KCHSC", "setting": "rate 500, 20 DAA", "value": 0}, {"measurement": "damage to plant, LOLPE", "setting": "rate 500, 20 DAA", "value": 50}, {"measurement": "damage to plant, POAAN", "setting": "rate 500, 20 DAA", "value": 60}, {"measurement": "damage to plant, POLCO", "setting": "rate 500, 20 DAA", "value": 0}, {"measurement": "damage to plant, SINAR", "setting": "rate 500, 20 DAA", "value": 0}, {"measurement": "damage to plant, STEME", "setting": "rate 500, 20 DAA", "value": 30}, {"measurement": "damage to plant, VERPE", "setting": "rate 500, 20 DAA", "value": 60}]}]}
